Results from US10444224B2, “Method for RNA detection and quantification” (Cornell University, priority 2011, dated 2019).

Columns and labels:
HEK293 cells [1] = experiment: Nonspecific fluorescence activation by cellular components; assay type: cell-based; settings: 10 μM, 30 min
Procedure: HEK293 cells were grown on PLL-coated glass-bottom dishes (MatTek) in DMEM plus 10% FBS to ˜80% confluency. Media was removed, cells were washed twice with microscopy media (20 mM HEPES pH 7.4, 119 mM NaCl, 5 mM KCl, 2 mM CaCl2, 2 mM MgCl2, and 30 mM glucose) and then incubated for 30 min with microscopy media plus vehicle (0.2% DMSO) or 10 μM N,N-Dimethyl-4′-nitro-4-stilbenamine, thiazole orange, malachite green, or DFHBI. Live fluorescence images were then taken with a CoolSnap HQ2 CCD camera through a 40× oil objective mounted on a Nikon TE2000 microscope and analyzed with the NIS-Elements software.

HEK293 cells [2] = experiment: Cytotoxicity assay after illumination (MTT); assay type: cell-based; settings: 10 μM fluorophore, 10 min illumination
Procedure: HEK293 cells were grown on PLL-coated glass-bottom dishes as indicated above. At ˜80% confluency, the media was removed and cells were incubated for 30 min with fresh media alone, media plus vehicle (0.2% DMSO) or media plus 10 μM DMHBI, DFHBI or MG. Cells were then illuminated for 10 min at 37° C. with a Nikon Intensilight C-HGFIE 130 W mercury lamp with FITC (DMHBI and DFHBI) or Cy5 (malachite green) filter sets (Chroma Technology) on an inverted epifluorescence microscope. Control cells were illuminated for 10 min under identical conditions but in the absence of any fluorophore. Cells were then washed several times with media to remove fluorophores and assayed for mitochondrial activity with MTT (3-[4,5-dimethylthiazol-2-yl]-2,5-diphenyltetrazolium bromide) based cell proliferation kit (Roche) and prepared according to manufacturers instructions. MTT absorbance readings were performed at 550 nm with 650 nm absorbance used for background subtraction. Values are reported as percent change in viability compared to control samples (illumination without fluorophore or without vehicle) and each condition was repeated in triplicate and averaged.

[3] = Truncation and mutagenesis of 24-2, DFHBI fluorescence; assay type: biochemical; settings: with DFHBI
Procedure: Secondary structure prediction was performed using Mfold online software (Zuker, “Mfold Web Server for Nucleic Acid Folding and Hybridization Prediction,” Nucl. Acids Res. 31(13): 3406-3415 (2003), which is hereby incorporated by reference in its entirety). Mutated and truncated RNAs were created by ordering single stranded DNA templates (Integrated DNA Technologies) with the desired mutations or truncations and PCR amplifying these sequences to create double stranded DNA templates using primers which included a 5′ T7 promoter sequence. PCR products were then purified with PCR purification columns (Qiagen) and used as templates for in vitro T7 transcription reactions (Epicentre).

Row | Molecule | nonspecific fluorescence activation upon incubation with cells (HEK293 cells [1]) | cytotoxicity / phototoxicity upon illumination (HEK293 cells [2]) | fluorescence relative to full-length 24-2 [3]
1 | CC1=NC(=Cc2cc(F)c(O)c(F)c2)C(=O)N1C [DFHBI, 4-(3,5-difluoro-4-hydroxybenzylidene)-1,2-dimethyl-imidazol-5-one] | does not exhibit nonspecific fluorescence activation | negligible phototoxicity | 
2 | 24-2-min: final truncated (minimized) 24-2 sequence (nucleic acid, listed as RNA, chemistry not given here) GACGCGACCGAAAUGGUGAAGGACGGGUCCAGUGCUUCGGCACUGUUGAGUAGAGUGUGAGCUCCGUAACUGGUCGCGUC |  |  | ~95%
